Source: PubChem BioAssay AID1996
In brackets after ≈: the same amount, converted by molar mass.

Conditions: buffer; pH 7.4; 200.0 µM

Question: For `COc1ccc(-c2cc(C(=O)Nc3cc(C)on3)no2)cc1OC`, which solubility kinetic is on record?
Answer: < 0.2 µg/mL

Question: With `COc1ccc(C(=O)Nc2cccnc2Cl)cc1OC` as the compound, how does the solubility kinetic read?
Answer: 42.5 µg/mL (≈ 145 µM)

Question: With `Cc1ccc(S(=O)(=O)N2CCCC(N3CCOCC3)C2)cc1Cl` (stereo not given) as the compound, how does the solubility kinetic read?
Answer: > 53.8 µg/mL

Question: Which solubility kinetic does the source give for `O=C(Nc1ccc(Cl)c(Cl)c1)c1cccnc1` here?
Answer: > 40.1 µg/mL

Question: Which solubility kinetic does the source give for `CCC1(C)Cc2ccccc2-c2nc[nH]c(=O)c21` (stereo not given) here?
Answer: 2.8 µg/mL (≈ 11.7 µM)

Question: With `O=C(/C=C/c1cccs1)NC(=S)Nc1ccccc1` as the compound, how does the solubility kinetic read?
Answer: 1.3 µg/mL (≈ 4.51 µM)

Question: With `COc1cccc(C(=S)N2CCOCC2)c1OS(=O)(=O)c1ccc(Cl)cc1` as the compound, how does the solubility kinetic read?
Answer: 3.3 µg/mL (≈ 7.71 µM)

Question: For `CCOC(=O)c1c(C)oc2cc(Cl)c(O)c(CN(C)C)c12`, which solubility kinetic is on record?
Answer: 43.9 µg/mL (≈ 141 µM)

Question: Which solubility kinetic does the source give for `COCCNC(=S)NCCc1ccc(Cl)cc1Cl` here?
Answer: > 46.1 µg/mL

Question: For `COc1cc(/C=C2/SC(=O)NC2=O)ccc1OCc1ccccc1`, which solubility kinetic is on record?
Answer: < 0.7 µg/mL

Question: For `Cc1ccc(N(CC(=O)NC2CCCC2)C(=O)c2ccc(C)s2)cc1`, which solubility kinetic is on record?
Answer: 49.2 µg/mL (≈ 138 µM)

Question: With `CCC(C)Nc1nc2c(c(=O)[nH]c(=O)n2C)n1CCOc1ccccc1` (stereo not given) as the compound, how does the solubility kinetic read?
Answer: 19.8 µg/mL (≈ 55.4 µM)

Question: With `Nc1ccc(S(=O)(=O)[O-])cn1.[Na+]` as the compound, how does the solubility kinetic read?
Answer: > 29.4 µg/mL

Question: Which solubility kinetic does the source give for `CCn1c(=O)c([N+](=O)[O-])c(NCc2ccco2)c2ccccc21` here?
Answer: 0.6 µg/mL (≈ 1.92 µM)

Question: For `Cc1ccc(-c2csc(NC(=O)c3cnccn3)n2)cc1C`, which solubility kinetic is on record?
Answer: < 0.2 µg/mL

Question: For `Cc1cc(C(=O)NC2CCCCCCC2)ccc1[N+](=O)[O-]`, which solubility kinetic is on record?
Answer: 1.1 µg/mL (≈ 3.79 µM)

Question: For `COCCNC(=O)c1cc2c(=O)[nH]c3ccccc3c2s1`, which solubility kinetic is on record?
Answer: 3.2 µg/mL (≈ 10.6 µM)

Question: With `OC(COc1ccc(Cl)cc1)CSc1ccccn1` (stereo not given) as the compound, how does the solubility kinetic read?
Answer: 37.5 µg/mL (≈ 127 µM)

Question: For `CSc1ccccc1C(=O)C1CCCN(C(=O)NC(C)C)C1` (stereo not given), which solubility kinetic is on record?
Answer: 42.1 µg/mL (≈ 131 µM)

Question: For `CCOC(=O)c1c(NC(=O)NC(C)(C)C)sc2c1CCN(C)C2`, which solubility kinetic is on record?
Answer: 14.9 µg/mL (≈ 43.9 µM)

Question: Which solubility kinetic does the source give for `COc1ccc(OCC(O)CN2CCNCC2)cc1.Cl` (stereo not given) here?
Answer: 49.5 µg/mL

Question: For `O=C(NC1CCCCC1)c1cc(S(=O)(=O)N2CCN(c3ccccc3)CC2)ccc1Cl`, which solubility kinetic is on record?
Answer: 1.5 µg/mL (≈ 3.25 µM)

Question: With `Cc1nc(-c2noc(-c3ccccc3Cl)n2)c(C(F)(F)F)o1` as the compound, how does the solubility kinetic read?
Answer: 0.6 µg/mL (≈ 1.82 µM)

Question: Which solubility kinetic does the source give for `CC1CC1C(=O)OCC(=O)NC(=O)c1ccc(C(C)(C)C)cc1` (stereo not given) here?
Answer: 7.5 µg/mL (≈ 23.6 µM)

Question: With `O=C1C=C(N2CCCCCC2)C(=O)N1c1ccc(Cl)cc1` as the compound, how does the solubility kinetic read?
Answer: 8.9 µg/mL (≈ 29.2 µM)

Question: With `O=C(COC(=O)/C=C/c1ccc(Cl)cc1)Nc1cccc(S(=O)(=O)NC2=NCCCCC2)c1` as the compound, how does the solubility kinetic read?
Answer: 8.7 µg/mL (≈ 17.8 µM)

Question: For `CC1(C)CC2CC(C)(CN2C(=S)Nc2ccccc2F)C1` (stereo not given), which solubility kinetic is on record?
Answer: 44 µg/mL (≈ 144 µM)

Question: With `COC(=O)Cc1ccc(Oc2ncc(C(F)(F)F)cc2Cl)cc1` as the compound, how does the solubility kinetic read?
Answer: 8.5 µg/mL (≈ 24.6 µM)

Question: With `CCn1c(CNC(=O)c2ccccc2F)cc2cc(C)ccc21` as the compound, how does the solubility kinetic read?
Answer: 0.8 µg/mL (≈ 2.58 µM)

Question: With `COn1c(=O)c(-c2cccc(Br)c2)[n+]([O-])c2ccccc21` as the compound, how does the solubility kinetic read?
Answer: 4.9 µg/mL (≈ 14.1 µM)

Question: With `O=C(O)CSCc1nc2ccccc2[nH]1` as the compound, how does the solubility kinetic read?
Answer: 31.7 µg/mL (≈ 143 µM)

Question: With `N#Cc1cc(Cl)c(NCC2CCCO2)cc1C#N` (stereo not given) as the compound, how does the solubility kinetic read?
Answer: 18.2 µg/mL (≈ 69.5 µM)

Question: For `Cc1ccc2c(CC(=O)NCC(C)(C)N3CCOCC3)coc2c1`, which solubility kinetic is on record?
Answer: > 49.6 µg/mL

Question: For `O=C(CN1CC=C(c2ccccc2)CC1)NC(=O)NC1CCCCC1`, which solubility kinetic is on record?
Answer: 22.1 µg/mL (≈ 64.7 µM)

Question: With `CN1C(=O)/C(=C\c2ccc(N3CCCCCC3)cc2)C(=O)NC1=S` as the compound, how does the solubility kinetic read?
Answer: 2.7 µg/mL (≈ 7.86 µM)

Question: With `O=C(NCc1ccco1)c1ccc(S(=O)(=O)N2CCCCC2)cc1` as the compound, how does the solubility kinetic read?
Answer: 1.9 µg/mL (≈ 5.45 µM)

Question: Which solubility kinetic does the source give for `N#CC(C#N)=Cc1ccc(OCC(=O)N2CCOCC2)cc1` here?
Answer: > 44.6 µg/mL

Question: With `CN(CC(=O)Nc1cccc2ccccc12)C(=O)c1ccc(NC(=O)CC#N)cc1` as the compound, how does the solubility kinetic read?
Answer: > 60.1 µg/mL

Question: For `CS(=O)(=O)N1CCC(C(=O)N2CCN(c3ccccc3F)CC2)CC1`, which solubility kinetic is on record?
Answer: 53.1 µg/mL (≈ 144 µM)

Question: With `COc1cccc(OC)c1OCCN1CCCC1` as the compound, how does the solubility kinetic read?
Answer: 32.4 µg/mL (≈ 129 µM)

Question: With `Cc1cc(C)nc(/N=C(\N)Nc2ccc(C(C)C)cc2)n1` as the compound, how does the solubility kinetic read?
Answer: > 42.5 µg/mL

Question: With `CNC(=O)COc1ccc(Nc2nnc(C)c3ccccc23)cc1.Cl` as the compound, how does the solubility kinetic read?
Answer: > 53.8 µg/mL

Question: For `Cc1ccccc1S(=O)(=O)NCc1ccc(N2CCN(C)CC2)cc1`, which solubility kinetic is on record?
Answer: 53.1 µg/mL (≈ 148 µM)

Question: Which solubility kinetic does the source give for `CC(C)CC(OC(=O)c1nsc(Cl)c1Cl)C(=O)NC1CCCC1` (stereo not given) here?
Answer: 22.4 µg/mL (≈ 59.1 µM)

Question: Which solubility kinetic does the source give for `CCOC(=S)N/C(=N\S(C)(=O)=O)c1ccccc1` here?
Answer: > 43 µg/mL

Question: For `Cc1cnc(C(=O)OCC(=O)Nc2cccc(S(=O)(=O)N3CCOCC3)c2)cn1`, which solubility kinetic is on record?
Answer: > 63.1 µg/mL

Question: For `CC(C)c1ccc(C(=O)NN2CCOCC2)cc1`, which solubility kinetic is on record?
Answer: > 37.2 µg/mL

Question: Which solubility kinetic does the source give for `CN(CCOc1ccccc1)CC(O)COCc1ccccc1F` (stereo not given) here?
Answer: 46 µg/mL (≈ 138 µM)

Question: For `N#Cc1cccc2cccc(S(=O)(=O)N3CCOCC3)c12`, which solubility kinetic is on record?
Answer: 14.9 µg/mL (≈ 49.3 µM)

Question: Which solubility kinetic does the source give for `Cc1cc(NC(=O)c2ccc3[nH]c(C)c(C)c3c2)ccn1` here?
Answer: 37.6 µg/mL (≈ 135 µM)

Question: With `CCC(OC(=O)C1=Cc2ccccc2OC1)C(=O)NCc1ccco1` (stereo not given) as the compound, how does the solubility kinetic read?
Answer: 3.1 µg/mL (≈ 9.08 µM)

Question: Which solubility kinetic does the source give for `Cc1cc2nc3c(nc2cc1C)CCCC3` here?
Answer: 24.2 µg/mL (≈ 114 µM)

Question: For `CS(=O)(=O)Nc1ccc(-c2cn3cccnc3n2)cc1`, which solubility kinetic is on record?
Answer: > 43.2 µg/mL

Question: Which solubility kinetic does the source give for `Cc1cccc(CNCCc2c[nH]c3ccccc23)c1.O=C(O)C(=O)O` here?
Answer: > 53.2 µg/mL

Question: Which solubility kinetic does the source give for `O=C(NC(=S)Nc1cccc2c(O)cccc12)c1ccco1` here?
Answer: 9.3 µg/mL (≈ 29.8 µM)

Question: With `Nc1ccc(S(=O)(=O)N2CCCC2)cc1Cl` as the compound, how does the solubility kinetic read?
Answer: > 39.1 µg/mL

Question: Which solubility kinetic does the source give for `Cc1ccc(CNC(=O)CCc2c(C)[nH]c(=O)c(C#N)c2C)cc1` here?
Answer: > 48.5 µg/mL

Question: Which solubility kinetic does the source give for `COc1ccc(NC(=O)Nc2ccccc2SC)c(OC)c1` here?
Answer: 0.7 µg/mL (≈ 2.2 µM)

Question: Which solubility kinetic does the source give for `Cc1cc(C)n2nc(C(=O)N/N=C/c3cn(C)nc3C)nc2n1` here?
Answer: > 46.8 µg/mL

Question: Which solubility kinetic does the source give for `O=C(COC(=O)c1ccc2ccccc2n1)Nc1ccccc1Br` here?
Answer: 12.4 µg/mL (≈ 32.2 µM)

Question: Which solubility kinetic does the source give for `FC(F)(F)c1ccccc1NC(=S)Nc1ccccc1` here?
Answer: 21.6 µg/mL (≈ 72.9 µM)

Question: For `CN(C)CCOC1c2ccccc2CSc2ccccc21.O=CO` (stereo not given), which solubility kinetic is on record?
Answer: 46.7 µg/mL

Question: With `O=C(O)c1ccc2c(c1)C(=O)N(c1ccccc1-c1ccccc1)C2=O` as the compound, how does the solubility kinetic read?
Answer: > 51.5 µg/mL

Question: Which solubility kinetic does the source give for `O=C(O)CCCCCCCCCC[n+]1ccccc1.[Br-]` here?
Answer: 47.9 µg/mL

Question: Which solubility kinetic does the source give for `CN(C)S(=O)(=O)c1cccc(NC(=O)COC(=O)c2cccnc2Cl)c1` here?
Answer: > 59.7 µg/mL

Question: For `CC1CCC2(CC1)NC(=O)N(CC(=O)NCCc1ccccc1)C2=O` (stereo not given), which solubility kinetic is on record?
Answer: > 51.5 µg/mL

Question: For `COc1ccccc1NC(=O)COC(=O)c1cc(C)n(C2CC2)c1C`, which solubility kinetic is on record?
Answer: 3.4 µg/mL (≈ 9.93 µM)

Question: For `COc1cc(C)c(COc2ncnc3ccccc23)cc1OC`, which solubility kinetic is on record?
Answer: 40.1 µg/mL (≈ 129 µM)

Question: Which solubility kinetic does the source give for `CCn1c(SCC(=O)NC2CC2)nnc1-c1csc(C)c1` here?
Answer: > 48.4 µg/mL

Question: With `CCNS(=O)(=O)c1ccc(CCC(=O)N2CCC(C)CC2)cc1` as the compound, how does the solubility kinetic read?
Answer: 49 µg/mL (≈ 145 µM)

Question: Which solubility kinetic does the source give for `c1ccc(-c2cn(-c3ccccc3)c3ncnc(N4CCCCC4)c23)cc1` here?
Answer: < 0.2 µg/mL

Question: For `O=C(Nc1ccc(F)c(Cl)c1)c1cccnc1`, which solubility kinetic is on record?
Answer: 24.5 µg/mL (≈ 97.7 µM)

Question: For `CSc1nsc(NC(=O)Nc2ccccc2)n1`, which solubility kinetic is on record?
Answer: 21.2 µg/mL (≈ 79.6 µM)

Question: With `COc1ccc(N=C2NC(=O)/C(=C/c3ccco3)S2)cc1` as the compound, how does the solubility kinetic read?
Answer: 1.6 µg/mL (≈ 5.33 µM)

Question: With `O=C(NCc1ccco1)C1CC(c2ccc(F)cc2)=NO1` (stereo not given) as the compound, how does the solubility kinetic read?
Answer: 8 µg/mL (≈ 27.8 µM)

Question: For `O=C(CCCOc1ccc(Cl)cc1Cl)NCc1ccncc1`, which solubility kinetic is on record?
Answer: 43.6 µg/mL (≈ 129 µM)

Question: With `Cn1c(N)nc2nc(CCc3ccccc3)c(=O)[nH]c2c1=O` as the compound, how does the solubility kinetic read?
Answer: 9.9 µg/mL (≈ 33.3 µM)

Question: Which solubility kinetic does the source give for `CC(C)(C)C(=O)NC(c1ccccc1)c1c(O)ccc2ccccc12` (stereo not given) here?
Answer: 0.9 µg/mL (≈ 2.7 µM)

Question: For `FC(F)(F)c1nc2ccccc2[nH]1`, which solubility kinetic is on record?
Answer: > 27.9 µg/mL

Question: For `C=CCNC(=O)/C(=C\c1ccco1)NC(=O)c1ccco1`, which solubility kinetic is on record?
Answer: > 42.9 µg/mL

Question: For `O=C(NC1CCCCCC1)C1CCN(S(=O)(=O)c2cnc[nH]2)CC1`, which solubility kinetic is on record?
Answer: 50.7 µg/mL (≈ 143 µM)

Question: For `Cl.Clc1ccc(-c2ccc(CNCC3CCCO3)o2)cc1` (stereo not given), which solubility kinetic is on record?
Answer: > 49.2 µg/mL

Question: With `CCN(CC)c1ccc(/C=C(/C#N)C(=O)NC(C)C)o1` as the compound, how does the solubility kinetic read?
Answer: 38.6 µg/mL (≈ 140 µM)

Question: Which solubility kinetic does the source give for `CCOn1c(=O)c(-c2ccc(F)cc2)[n+]([O-])c2ccccc21` here?
Answer: 9.9 µg/mL (≈ 33 µM)

Question: With `Cc1cccnc1NC(=O)c1ccc2c(c1)OCO2` as the compound, how does the solubility kinetic read?
Answer: > 38.4 µg/mL
